Laboratory results reported in paper PMC7205193, “Crystal structure of the mitochondrial protein mitoNEET bound to a benze-sulfonide ligand” (Communications chemistry, 2019).
Several values for one entry are separate records, joined by “and”; a condition that tells them apart may be missing. Equal entries are not always repeated. Entries after “also recorded” stand apart in the source; their conditions may differ.

Tests used:
mitoNEET [1] = biological target: T1, mitoNEET (Homo sapiens, UniProt Q9NZ45); assay: [3H]rosiglitazone displacement binding assay (SPA); conditions: 20 nM [3H]rosiglitazone, 60 min, room temperature, 50 mM Tris pH 8; ± std error
T1 sequence (Q9NZ45 32-108 limits assumed): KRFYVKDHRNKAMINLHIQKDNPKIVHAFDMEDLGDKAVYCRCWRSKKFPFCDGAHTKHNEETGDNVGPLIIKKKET
Experimental: Recombinant mitoNEET was attached to nickel scintillation proximity assay (SPA) beads, and incubated with 20 nM [^3H] rosiglitazone (PerkinElmer) for 60 min at room temperature. The binding buffer was 50 mM Tris pH 8. White clear bottom 96-well plates were used for the assay, and the counts per minute analyzed in a MicroBeta Counter (Perkin Elmer). Data were analyzed as fraction of the total binding using a one-site model with GrapPad Prism 6 statistical software.

N2A mouse neuronal cells = assay: Seahorse bioenergetics mitochondrial stress test; type: cell-based; conditions: 20 μM, three hours, vs DMSO vehicle
Experimental: Mitochondrial bioenergetics were evaluated by the use of the Seahorse 96-well plate reader. Cells were grown in specialty plates from the company, at 20,000 cells per well of N2A mouse neuronal cells. The cells were treated with compounds at 20 μM for three hours, and then a mitochondrial stress test (Seahorse Biosciences) done using compounds which affect mitochondrial function, including oligomycin, FCCP, rotenone, and antimycin A.

[2] = biological target: T2, mitoNEET [2Fe-2S] cluster (Homo sapiens, UniProt Q9NZ45); assay: Iron-sulfur cluster release assay; type: biochemical; conditions: 20 μM, pH 6.5, absorbance at 458 nm, room temperature
T2 sequence (Q9NZ45 with tags, fused parts or gaps): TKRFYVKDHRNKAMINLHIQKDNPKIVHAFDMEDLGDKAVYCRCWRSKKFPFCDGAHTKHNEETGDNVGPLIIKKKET
Experimental: This method was adapted as previously described. MitoNEET was prepared as described earlier and a stock of 4 mg/mL was used in the assay, in a 50 mM Tris buffer pH 8. […] In each well 80 μL of the appropriate buffer, with either vehicle or compound, and then mitoNEET protein was added at 20 μL. The 96-well plate was analyzed in a BioTek Synergy 4 plate reader, reading at 458 nm for a period of time, at room temperature. For the pH 8, we used 50 mM Tris pH 8, with 100 mM NaCl, and for the pH 6.5, we used the 50 mM Bis–Tris pH 6.5 with 100 mM NaCl buffer solution.

mitoNEET [3] = biological target: T1, mitoNEET; assay: Surface plasmon resonance; conditions: SPR, PBST pH 7.4, 1% DMSO, 25 °C, one-to-one binding model; read-out: equilibrium dissociation constant Kd
Experimental: Experiments were performed using Reichert4SPR refractometer system (Reichert Technologies, Depew, NY, USA) equipped with a dextran SPR sensor chip (Reichert carboxymethyl dextran P/N 13206066). Acetate buffer was used for immobilization of the protein MN (ligand). […] Data analysis were performed with TraceDrawer software. Final Kd values were determined by fitting to a one-to-one binding model.

[4] = Dynamic light scattering aggregate formation; type: physicochemical; conditions: 20 μM in PBS pH 7.4
Experimental: This stock solution was diluted into PBS pH 7.4 to a final concentration of 20 μM, and the evaluated using a Malvern DLS Nano-ZS-90 system (Malvern Instruments).

[5] = test system: recombinant mitoNEET (mitoNEET-His protein); parameters: method as in PMID 27687671; conditions: read-out: IC50, binding to mitoNEET; cited from earlier work
mitoNEET [6] = biological target: T1, mitoNEET; assay: Pull-down capture assay with furosemide probe on streptavidin beads; type: binding; conditions: 0–100 μM furosemide, N2A cell lysate with recombinant mitoNEET, 100 μM probe, Western blot
Experimental: For the ELISA assay, streptavidin plates (Pierce) were incubated for 30 min with a dose-dilution of the probe, after which an equal amount of recombinant mitoNEET protein was placed into the wells. After 2 h incubation at 4 °C, the plate was washed with a wash buffer with PBS pH 7.4 containing 0.05% Tween-20. The amount of mitoNEET was determine using a mitoNEET primary antibody (ProteinTech) 1:1000, followed by secondary anti-rabbit horseradish peroxidase antibody 1:2000 for 1 h. Detection of the color was done at 450 nm after addition of 3,3′,5,5′-tetramethylbenzidine solution and stopping solutions (Pierce). For the capture assay, N2A cells were lysed and collected with radio-immunoprecipitation assay buffer. […] At the end of the experiment, a magnetic tube rack was used to attract the magnetic beads. The solutions were washed with PBST (pH 7.4, 0.05% Tween-20), boiled for 5 min, and run on a BioRad 4–20% gel for Western Blot analysis (mitoNEET primary antibody 1:1000 and secondary HPR 1:2000).

[7] = biological target: the molecule itself; assay: crystal structure; mitoNEET (20 mg/ml) with equimolar furosemide, sitting drop vapor diffusion, 60% v/v Tacsimate pH 7.0; 1.95 Å; MR-SAD with PDB 3REE as search model

Molecule: CCCNc1cc(Cl)c(S(N)(=O)=O)cc1C(=O)O [2a]
- IC50 (mitoNEET [1]): 81 µM and 81.4 µM

Molecule: CCCCNc1cc(Cl)c(S(N)(=O)=O)cc1C(=O)O [2b]
- IC50 (mitoNEET [1]): 42.6 ± 1.03 µM

Molecule: CCCCCNc1cc(Cl)c(S(N)(=O)=O)cc1C(=O)O [2c]
- IC50 (mitoNEET [1]): 54.3 ± 0.92 µM

Molecule: CCCCCCNc1cc(Cl)c(S(N)(=O)=O)cc1C(=O)O [2d]
- IC50 (mitoNEET [1]): 9.12 ± 1.04 µM

Molecule: CCCCCCCNc1cc(Cl)c(S(N)(=O)=O)cc1C(=O)O [2e]
- IC50 (mitoNEET [1]): 19.8 ± 0.9 µM

Molecule: CCCCCCCCNc1cc(Cl)c(S(N)(=O)=O)cc1C(=O)O [2f]
- melting point: 184 to 185 °C
- IC50 (mitoNEET [1]): 6.2 µM and 6.24 µM
- ATP-linked oxygen consumption (N2A mouse neuronal cells): increase
- basal respiration (oxygen consumption rate) (N2A mouse neuronal cells): increase
- maximal respiration (N2A mouse neuronal cells): increase

Molecule: NS(=O)(=O)c1cc(C(=O)O)c(NCc2ccccc2)cc1Cl [2l]
- IC50 (mitoNEET [1]): 20.7 µM and 20.8 µM
- ATP-linked oxygen consumption (N2A mouse neuronal cells): increase
- basal respiration (oxygen consumption rate) (N2A mouse neuronal cells): increase
- maximal respiration (N2A mouse neuronal cells): increase

Molecule: NS(=O)(=O)c1cc(C(=O)O)c(NCc2ccc(F)cc2)cc1Cl [2n]
- IC50 (mitoNEET [1]): 8.82 ± 1 µM

Molecule: NS(=O)(=O)c1cc(C(=O)O)c(NCc2cccs2)cc1Cl [2p]
- IC50 (mitoNEET [1]): 12.4 ± 1.23 µM

Molecule: CCCCC/C=C\C/C=C\C/C=C\C/C=C\CCCC(=O)O [Arachidonic acid, reference compound]
- IC50 (mitoNEET [1]): 2.93 ± 1.06 µM

Molecule: NS(=O)(=O)c1cc(C(=O)O)c(NCc2ccco2)cc1Cl [Furosemide, furosemide]
- iron-sulfur cluster release from mitoNEET [2]: able to slow down cluster release
- iron-sulfur cluster release from mitoNEET ([2]; listed as furosemide): able to reduce cluster loss
- Kd (mitoNEET [3]): 53.5 µM
- IC50 (mitoNEET [1]): 29.3 ± 0.97 µM
- basal respiration (oxygen consumption rate) (N2A mouse neuronal cells): increase
- maximal respiration (N2A mouse neuronal cells): increase
- proton leak (N2A mouse neuronal cells): trended to increase
- aggregate formation in solution (DLS) [4]: did not observe any aggregate formation
- IC50 [5]: ~40 µM
- mitoNEET captured by furosemide probe in presence of competitor (mitoNEET [6]): dose-dependently the reduction of mitoNEET captured; also recorded: able to reduce the amount of mitoNEET captured

Molecule: NS(=O)(=O)c1cc(C(=O)O)c(Cl)cc1Cl [compound 1, 2,4-dichloro-5-sulfamoylbenzoic acid, reference compound]
- IC50 (mitoNEET [1]): 1021 ± 0.96 µM

B1: soluble domain of human mitoNEET (domain or fragment)
chain: TKRFYVKDHRNKAMINLHIQKDNPKIVHAFDMEDLGDKAVYCRCWRSKKFPFCDGAHTKHNEETGDNVGPLIIKKKET
notes: mitoNEET (gene cisd1), human, soluble domain; Each subunit holds a [2Fe-2S] cluster (His87 and three cysteines); also called mN; MN; source: E. coli Rosetta 2 (DE3), purified (Ni-NTA, SUMO protease digestion, second Ni-NTA, size exclusion chromatography); not shown: His-SUMO, N-terminal, cleaved
- binding result [7]: binds
